The target in one data set is T1, FGFR3 (Homo sapiens, UniProt P22607).
T1 construct: endogenous in cells; host or cells: SUM149 parental cells and SUM149-derived talazoparib-resistant BR cells (BR#09, BR#17)
Nature of the data set: Western blot of FGFR phosphorylation in cells treated with MMS and talazoparib. Type of data set: cell-based. Conditions: BR# 09 and BR# 17 cells; 5 μM FGFRi. On the technique in general: A western blot detects proteins with antibodies after separation by electrophoresis.

The next data set deals with T2, PARP1 (Homo sapiens, UniProt P09874).
T2 construct: endogenous in cells; host or cells: SUM149-derived talazoparib-resistant (BR) cells
Briefly: PARP trapping assay (chromatin-bound PARP1). Type of data set: cell-based. The settings on record: BR cells, 10 μM PD173074, 100 nM talazoparib, MMS.

The next data set deals with p-Y158 PARP1. Briefly: Western blot of Y158-phosphorylated PARP1 in BR cells. Type of data set: cell-based. The source says:
FIGS. 3A-3E: FGFR3 mediates PARP inhibitor resistance by phosphorylating PARP1 at Y158 residue. (FIG. 3A) Proximity ligation assay (PLA) signals of FGFR3 and PARP1 (red), phalloidin (green), and DNA (blue) were merged in representative images of the treatment indicated (MMS, methyl methanesulfonate; Tala, talazoparib; PD, PD173074; BR, SUM149-derived talazoparib-resistant cells). Mean ±95% confidence interval PLA signals in each cell nucleus are shown in the histograms (n >100). *p <0.05; ***p <0.001; n.s., not significant. (FIG. 3B) Cell survival of BR cells with PARP1 knockdown expressing hemagglutinin-tagged vector control (Neo), wild-type PARP1 (WT), or PARP1^Y158F (Y158F) mutant in response to talazoparib, measured by MTT assay (mean ±standard deviation; n >3). (FIG. 3C) BR# 17 cells were treated with MMS, talazoparib, and PD173074 as indicated for Western blot analysis. (FIG. 3D) Combination index (CI) of talazoparib and PD173074 in BR# 17 cells expressing PARP1^WT or PARP1^Y158F measured by MTT assay. (FIG. 3E) Cells were harvested at different time points after 40 minutes of treatment with talazoparib and MMS. […]
The precipitated protein complex was then washed and subjected to Western blot analysis performed as described previously (Chen, et al., 2019). Signals were detected using the ImageQuant 4000 system (GE Healthcare) and quantified using Image Studio Lite.

A further data set relates to BR# 09 cells. Briefly: BR# 09 orthotopic xenograft mouse model. Type of data set: in vivo, mice. Conditions: for tumor growth: BR# 09 model, oral gavage daily, olaparib 40, AZD4547 8, talazoparib 0.25, PD173074 15 mg/kg per day; for talazoparib-induced FGFR phosphorylation in tumors: 3 days. The procedure: (§1) Animal studies were performed following a protocol approved by The University of Texas MD Anderson Cancer Center Institutional Animal Care and Use Committee. Female nude mice were purchased from the Department of Experimental Radiation Oncology at MD Anderson. For BR# 09 and BR# 17 xenograft mouse models, two million cells were mixed with 50% (v/v) growth factor reduced Matrigel matrix (Corning) and inoculated into the mammary fat pads of 6- to 8-week-old female nude mice. For the 4T1 model, female Balb/c mice were purchased from Jackson Laboratory. A total of 50,000 4T1 cells were mixed with Matrigel matrix and inoculated into the mammary fat pad of 6-week-old female Balb/c mice. Inhibitors were dissolved in vehicle solvent containing 10% dimethylacetamide (Sigma-Aldrich), 5% Kolliphor HS 15 (Sigma-Aldrich), and 85% phosphate-buffered saline (Evans et al., 2017). […] Treatment with inhibitors started when tumor volumes reached a mean of 120 mm^3. Mice were treated using oral gavage daily for 20 days followed by 3 days with no drugs to prevent severe weight loss. After the first cycle, treatment was continued on a schedule of 6 days on and 1 day off. Mouse weight and tumor volume were measured three times every week. Tumor volume was estimated using the following formula: volume (mm^3) =length (mm)×width (mm)×0.5 width (mm), where length is the longest axis of the tumor. Mice were euthanized using CO2 when the tumor volume reached 2,000 mm^3. For the blood chemical test, mouse cardiac blood was collected by veterinarians in the Department of Veterinary Medicine and Surgery at MD Anderson after 16 days of treatment. Concentrations of alanine aminotransferase, aspartate aminotransferase, and blood urea nitrogen in Balb/c mice were referred to North American colonies of Charles River Balb/c mice.

Data set [1] has as its system BR# 17 cells. Nature of the data set: yH2AX foci immunofluorescence staining after MMS. Type of data set: cell-based. Conditions: after MMS removal. As to the method: FIGS. 2A-2C: Inhibition of FGFR3 decreases DNA damage repair. (FIG. 2A) SUM149-derived talazoparib-resistant (BR)# 17 cells were treated for 1 hour with methyl methanesulfonate (MMS), talazoparib (Tala), and PD173074 (PD) as indicated. After MMS removal, cells were cultured for the indicated time before immunofluorescence staining. Representative images of yH2AX (green) and DNA (blue) are shown. […] (FIG. 2B) For comet assay analysis, BR# 09 cells were incubated for another 3 hours after MMS removal. DNA damage was normalized to that of the talazoparib-treated group. Mean ±standard deviation is shown (n >100). (FIG. 2C) Combination index (CI) of talazoparib and PD173074 in BR cells, measured by colony formation assay. Analysis of variance was used for statistical comparisons.
Immunofluorescence staining and confocal microscopy were performed as previously described (Chen, et al., 2019). Cells were treated with DMSO (solvent control), talazoparib (125 nM for BR# 09; 250 nM for BR# 17), PD173074 (10 μM), or the combination of talazoparib and PD173074 for the time indicated. […] In both immunostaining and the proximity ligation assay, images of the cells were captured and analyzed with an LSM 710 laser confocal microscope and Zeiss Zen software (Carl Zeiss) and foci counting was performed using BlobFinder (Allalou and Wahlby, 2020).

Data set [2] relates to BR# 17 cells. Nature of the data set: BR# 17 orthotopic xenograft mouse model. Type of data set: in vivo, mice. The settings on record: BR# 17 model; oral gavage daily; olaparib 40, AZD4547 8, talazoparib 0.25, PD173074 15 mg/kg per day. The procedure: as §1
The target of data set [3] is His-tagged PARP1 recombinant protein (UniProt P09874).
The subject of data set [4] is SUM149-derived talazoparib-resistant (BR) cells. Briefly: MTT assay, cell survival. Type of data set: cell-based. The settings on record: for cross-resistance of BR cells to PARPi: talazoparib-resistant BR cells, MTT assay. The procedure: (§2) Cells were seeded at a concentration of 1,000 cells/well in a 96-well plate and cultured overnight before treatments with inhibitors. Inhibitor-containing media was refreshed every 3 days for a 6-day treatment schedule. Cells were incubated with 0.5 mg/ml thiazolyl blue tetrazolium bromide (Sigma-Aldrich) for 2 hours, and formazan crystals were dissolved using DMSO. Optical density at 565 nm was measured and survival percentages were calculated by normalizing the optical density value of each treatment group to that of the control group, treated with DMSO only. Half-maximal inhibitory concentrations of inhibitors were calculated using the standard curve interpolate function in GraphPad Prism 8.
For Western blot signal quantification, signal intensities were analyzed using Image Studio Lite (version 5.2; LI-COR Biosciences). Signals of PARP1, PARylation, FGFR3, and phosphorylated FGFR were first normalized to house-keeping proteins (tubulin, actin, or GAPDH) of each sample before being normalized to the control groups. Every independent experiment repeat was quantified individually. Fold changes in Western blot signals were analyzed by a nonparametric Friedman test using the GraphPad Prism 8.0 software. A p value of less than 0.05 was considered statistically significant: *p <0.05; **p <0.002; ***p <0.001. Combination index experiments were designed according to the Chou-Talalay method^39, and results were calculated using Compusyn software.

A further data set has as its system HCC1806-BR cells. Briefly: MTT assay, survival of HCC1806-BR and HCC1806 parental cells. Type of data set: cell-based. The settings on record: 6 days of PARPi. As to the method: FIGS. 7A-7B. Activation of FGFR3 in HCC1806-BR cells. […] HCC1806-BR cells were developed by treating HCC1806 cells with […] talazoparib continuously for 9 months. Survival of HCC1806-BR and HCC1806 parental cells in response to talazoparib, olaparib, and rucaparib was measured by exposing cells to various concentrations of the indicated PARPi for 6 days before performing the MTT assay. (FIG. 7B) Antibody arrays of receptor tyrosine kinase activation in HCC1806 parental cells and HCC1806-BR cells. Cells were treated with either dimethyl sulfoxide (DMSO) or talazoparib overnight before being harvested for RTK antibody array analysis. PBS, phosphate-buffered saline.
as §2

Data set [5] concerns SUM149-derived talazoparib-resistant (BR) cells. Briefly: Colony formation assay. Type of data set: cell-based. Conditions: colony formation assays; BR cells vs SUM149 parental cells. As to the method:
SUM149 cells (600 cells/well), BR# 09 cells (800 cells/well), and BR# 17 cells (1,000 cells/well) were seeded into a 12-well plate 18 hours before treatments. Inhibitor-containing media was refreshed every 2 days. Cells were fixed using 4% paraformaldehyde after 10-14 days of treatment. Colonies were stained with 0.5% crystal violet before plates were imaged, and colony number was quantified using the Celigo imaging cytometer (Nexcelom Bioscience). Cell survival rate was calculated by normalizing the number of colonies in each well to that of the vehicle-treated well on the same culture plate.

Chain of His-tagged PARP1 recombinant protein (P09874 whole entry, looked up): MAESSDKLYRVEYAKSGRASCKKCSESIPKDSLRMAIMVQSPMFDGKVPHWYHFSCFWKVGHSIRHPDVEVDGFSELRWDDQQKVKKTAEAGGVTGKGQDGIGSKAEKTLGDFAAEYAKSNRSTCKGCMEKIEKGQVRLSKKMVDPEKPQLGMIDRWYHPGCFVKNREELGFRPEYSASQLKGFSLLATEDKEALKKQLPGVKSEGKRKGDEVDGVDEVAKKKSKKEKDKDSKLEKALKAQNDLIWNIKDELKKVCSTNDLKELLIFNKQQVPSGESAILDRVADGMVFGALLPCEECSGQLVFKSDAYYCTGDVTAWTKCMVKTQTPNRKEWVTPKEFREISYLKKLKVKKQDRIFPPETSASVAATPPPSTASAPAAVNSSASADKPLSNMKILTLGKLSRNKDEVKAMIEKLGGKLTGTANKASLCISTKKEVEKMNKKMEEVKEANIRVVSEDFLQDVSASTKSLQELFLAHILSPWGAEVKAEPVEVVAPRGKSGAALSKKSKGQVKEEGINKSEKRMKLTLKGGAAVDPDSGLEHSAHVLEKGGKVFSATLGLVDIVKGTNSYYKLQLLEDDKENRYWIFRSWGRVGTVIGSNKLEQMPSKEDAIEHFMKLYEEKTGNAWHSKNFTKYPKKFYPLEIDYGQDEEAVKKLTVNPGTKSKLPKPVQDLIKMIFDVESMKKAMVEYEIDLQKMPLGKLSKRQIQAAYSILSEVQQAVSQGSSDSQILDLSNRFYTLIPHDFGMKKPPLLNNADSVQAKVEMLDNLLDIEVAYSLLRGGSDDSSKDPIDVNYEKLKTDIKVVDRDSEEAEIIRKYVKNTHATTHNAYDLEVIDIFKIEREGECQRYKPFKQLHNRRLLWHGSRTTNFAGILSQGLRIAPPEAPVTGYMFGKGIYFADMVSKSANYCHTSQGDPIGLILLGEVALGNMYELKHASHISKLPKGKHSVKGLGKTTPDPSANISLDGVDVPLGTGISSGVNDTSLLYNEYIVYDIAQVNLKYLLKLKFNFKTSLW
T2 sequence (P09874 whole entry): as the sequence (P09874 whole entry, looked up) above
T1 sequence (P22607 23-806): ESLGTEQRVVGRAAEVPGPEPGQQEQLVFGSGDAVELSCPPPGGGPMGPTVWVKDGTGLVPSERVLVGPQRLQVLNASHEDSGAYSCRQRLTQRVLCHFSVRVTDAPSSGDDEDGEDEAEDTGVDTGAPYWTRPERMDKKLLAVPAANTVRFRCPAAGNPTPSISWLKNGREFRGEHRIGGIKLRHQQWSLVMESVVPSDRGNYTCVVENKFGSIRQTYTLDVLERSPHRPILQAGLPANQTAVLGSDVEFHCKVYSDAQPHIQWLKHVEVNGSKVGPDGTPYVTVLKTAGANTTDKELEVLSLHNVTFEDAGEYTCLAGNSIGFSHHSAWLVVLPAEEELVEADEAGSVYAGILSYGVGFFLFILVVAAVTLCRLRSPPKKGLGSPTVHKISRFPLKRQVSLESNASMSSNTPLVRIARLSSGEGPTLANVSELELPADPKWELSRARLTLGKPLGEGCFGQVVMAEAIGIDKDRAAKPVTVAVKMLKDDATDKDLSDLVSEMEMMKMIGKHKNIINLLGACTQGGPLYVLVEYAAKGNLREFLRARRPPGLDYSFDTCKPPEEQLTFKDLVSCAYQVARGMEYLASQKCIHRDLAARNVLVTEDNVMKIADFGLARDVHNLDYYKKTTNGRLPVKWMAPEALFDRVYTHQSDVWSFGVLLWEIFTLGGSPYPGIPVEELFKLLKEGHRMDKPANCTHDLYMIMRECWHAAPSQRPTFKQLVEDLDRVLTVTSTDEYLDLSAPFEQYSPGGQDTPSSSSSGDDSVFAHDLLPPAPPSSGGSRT
Procedure for FGFR3: (FIG. 8B) BR# 17 cells were treated with 250 nM talazoparib and 0.01% MMS and FGFRi for 1 hour before being fixed and subjected to immunofluorescence staining with antibodies against FGFR3 (TexasRed, red) and yH2AX (FITC, green).

Turning to `CCN(CC)CCCCNc1ncc2cc(-c3cc(OC)cc(OC)c3)c(NC(=O)NC(C)(C)C)nc2n1` [PD173074], the “FGFR phosphorylation in response to MMS and talazoparib” value on FGFR3 is “inhibited”. Moreover, the “talazoparib-induced PARP1 trapping” value on PARP1 is “prolong”. Moreover, the “p-Y158 PARP1 level” value in the data set on p-Y158 PARP1 is on record as “diminished”. Besides, the body weight result in the data set on BR# 09 cells (BR xenograft mouse models, PD173074 15 mg/kg per day, alone or with talazoparib 0.25 mg/kg per day, long-term treatment) is “no loss of body weight”. For the same compound, the tumor growth result in the data set with BR# 09 cells and with BR# 17 cells [2] was “did not inhibit tumor growth” throughout. Also, the “talazoparib-induced FGFR phosphorylation in tumors” value in the data set with BR# 09 cells (PD173074 10 mg/kg per day) is recorded as “inhibited”; in the data set on BR# 09 cells (PD173074 20 mg/kg per day), “less than the basal levels”. Moreover, the “yH2AX foci at 8 hours compared with 4 hours” value with BR# 17 cells [1] is “significantly decreased”.

As to activated FGFR kinase domain, the “tyrosine phosphorylation in in vitro kinase assay (Western blot with anti-phospho-tyrosine antibodies; mass spectrum analysis)” value in data set [3] is “FGFR can phosphorylate PARP1 at tyrosine (Y)158 and Y176 amino acids”.

Consider `C[C@]1(c2nc3c(C(N)=O)cccc3[nH]2)CCCN1` [veliparib], for which, in data set [4], the “cross-resistance of BR cells to PARPi” value was “cross-resistance”.

Consider AZD4547, for which the tumor growth result in the data set with BR# 09 cells is “not”; in the data set on BR# 17 cells [2], “inhibited tumor growth”.

For `Cn1ncnc1[C@H]1c2n[nH]c(=O)c3cc(F)cc(c23)N[C@@H]1c1ccc(F)cc1` [talazoparib], in the data set with HCC1806-BR cells, the “resistance of HCC1806-BR cells compared with HCC1806 parental cells” value is “more resistant”. For the same compound, the “half-maximal inhibitory concentration in BR cells relative to parental cells” value in data set [4] (MTT assays, BR cells vs SUM149 parental cells) is on record as “more than 100 fold”; in [5], “more than 100 fold”. The “increase in resistance to talazoparib on PARP1 knockdown” value in data set [4] (SUM149, BR# 09 and BR# 17 cells with shPARP1 vs non-targeting shRNA control) was at least 10 fold. In addition, the tumor growth entry in the data set with BR# 09 cells and with BR# 17 cells [2] was “did not inhibit tumor growth” throughout. For the same compound, the “FGFR3 phosphorylation in tumors” value in the data set with BR# 09 cells (tumors harvested after 3 days of treatment, talazoparib alone) is “induced”. For the same compound, the “yH2AX foci at 8 hours compared with 4 hours” value in the data set on BR# 17 cells [1] is listed as “significantly decreased”.

Take `CNCc1ccc(-c2[nH]c3cc(F)cc4c3c2CCNC4=O)cc1` [rucaparib]: in the data set on HCC1806-BR cells, the “resistance of HCC1806-BR cells compared with HCC1806 parental cells” value is reported as “more resistant”. In addition, the “cross-resistance of BR cells to PARPi” value in data set [4] is “cross-resistance”.

As to `O=C(c1cc(Cc2n[nH]c(=O)c3ccccc23)ccc1F)N1CCN(C(=O)C2CC2)CC1` [olaparib], the “resistance of HCC1806-BR cells compared with HCC1806 parental cells” value in the data set with HCC1806-BR cells is “more resistant”. The “cross-resistance of BR cells to PARPi” value in data set [4] is “cross-resistance”. In addition, the tumor growth entry in the data set with BR# 09 cells and with BR# 17 cells [2] was “did not inhibit tumor growth” in each case.
